From US20210380596A1, “UPADACITINIB CRYSTAL FORM AND PREPARATION METHOD THEREFOR AND USE THEREOF” (CRYSTAL PHARMACEUTICAL (SUZHOU) CO., LTD., priority 2019, published 2021)
In brackets after ≈: the same amount, converted by molar mass. Several values for one entry are separate records, joined by “and”; a condition that tells them apart may be missing. Equal values may be shown once. Entries after “also recorded” stand apart in the source; their conditions may differ.

Tests used:
[1] = Flowability (compressibility index / Carr index); format: physicochemical; details: for Bulk density (ρ0): 5-mL measuring cylinder, 500 mg; for Flowability: criteria of ICH Q4B Annex 13; for Tapped density (ρf): tapping times: 1250
Method: Compressibility index or Carr index is usually utilized to evaluate the flowability of powder and granules during the drug product process. Compressibility index test method is as follows: a certain amount of powder was added into a measuring cylinder and bulk volume was recorded. Then the powder was tapped to make it in the tightest state and the tapped volume was recorded. The bulk density ρ0 and tapped density pf were calculated. The compressibility index was calculated according to c=(ρf−ρ0)/ρf.
Equipment: ZS-2E tap density tester.
Parameter: 5-mL measuring cylinder, 500 mg, tapping times: 1250.

[2] = Adhesiveness (material sticking to the punch); format: physicochemical; details: 30 mg, Φ8 mm tooling, 10 kN held 30 s
Method: The amount of material sticking to the punch was weighed. The compression was repeated twice and the average amount of material sticking to the punch during the compression were recorded.

[3] = FaSSIF, 37° C.; disclosed in WO2017066775A1; cited from earlier work
[4] = Compressibility (tablet hardness and tensile strength); format: physicochemical; details: for Diameter / Thickness: 80 mg, Φ6 mm tooling, 10 kN, after 24 h, tablets 1-3; for Average tensile strength: mean of three tablets
Method: An ENERPAC manual tablet press was used for compression. […] Until complete elastic recovery, hardness (H) was tested with an intelligent tablet hardness tester. Diameter (D) and thickness (L) were tested with a caliper. Tensile strength of the powder was calculated with the following formula: T=2H/πDL. Under a certain force, the greater the tensile strength, the better the compressibility.

[5] = Kinetic solubility of Form CSII (saturated solutions, HPLC); format: physicochemical
Method: The method parameters of kinetic solubility test in the present disclosure are as follows:
A certain amount of Form CSII was suspended into pH=7.4 PBS, pH=6.5 FaSSIF and pH=5.0 FeSSIF at 25° C. or 37° C. to obtain saturated solutions. After equilibration for 24 h, 30 h and 48 h, the suspensions were filtered to obtain saturated solutions, and concentration was determined by HPLC.

[6] = Stability of Form CSII drug substance on storage (XRPD, HPLC purity); format: physicochemical; details: for Chemical purity during storage: drug substance
Method: X-ray powder diffraction patterns in the present disclosure were acquired by a Bruker D2 PHASER or Bruker D8 Discover X-ray powder diffractometer. The parameters of the X-ray powder diffraction method of the present disclosure are as follows:
The method parameters for relative substances test in the present disclosure are as follows:
A certain amount of Form CSII sample was stored at different conditions of 4° C., 25° C./60% RH, 40° C./75% RH and 60° C./75% RH. Crystalline form was checked by XRPD before and after storage.

[7] = Mechanical stability (tableting at 10 kN, manual grinding; XRPD); format: physicochemical
Method: 30 mg of Form CSII was weighed into the dies of a Φ8 mm round tooling and tableted by ENERPAC manual tablet press with 10 kN pressure. Crystalline form before and after tableting were checked by XRPD. […] 10 mg of Form CSII was weighed into a mortar and ground manually for 5 min. The crystalline form before and after grinding were checked by XRPD.

[8] = Stability of Form CSII in drug product (formulation process and storage); format: physicochemical; details: formulation and process of Tables 14 and 15
Method: Crystalline form before and after tableting were checked by XRPD.
The drug products of Form CSII were stored under 25° C./60% RH and 40° C./75% RH in closed dishes with 1 g of desiccant for 3 months to evaluate the stability of Form CSII in drug product.

[9] = Particle size distribution (Mastersizer 3000, wet mode); format: physicochemical; details: Isopar G containing 0.2% lecithin
Method: Proton nuclear magnetic resonance (H NMR) spectrum data were collected from a Bruker Avance II DMX 400M HZ NMR spectrometer. 1-5 mg of sample was weighed and dissolved in 0.5 mL of deuterated dimethyl sulfoxide to obtain a solution with a concentration of 2-10 mg/mL. The particle size distribution data in the present disclosure were acquired by a Mastersizer 3000 laser particle size analyzer of Malvern. The test is carried out in wet mode with a Hydro MV dispersing device, and the dispersion medium is Isopar G. The method parameters of the laser particle size analyzer are as follows:
The mixtures were mixed thoroughly and transferred into the Hydro MV. The measurement was started when the shading rate is in an appropriate position.

[10] = listed as Form C in WO2017066775A1
[11] = FaSSIF pH 6.5, thermodynamic from solid, pH=6.5 FaSSIF, 37° C.
[12] = FeSSIF pH 5.0, thermodynamic from solid, pH=5.0 FeSSIF, 37° C.
[13] = PBS pH 7.4, aqueous buffer, thermodynamic from solid, pH=7.4 PBS, 25° C.
[14] = 25° C./60% RH, closed, 3 months
[15] = 40° C./75% RH, closed, 3 months

With `CC[C@@H]1CN(C(=O)NCC(F)(F)F)C[C@@H]1c1cnc2cnc3[nH]ccc3n12` [Form C, (3S,4R)-3-ethyl-4-(3H-imidazo[1,2-a]pyrrolo [2,3-e]pyrazin-8-yl)-N-(2,2,2-trifluoroethyl) pyrrolidine-1-carboxamide, reference compound] the “Bulk density (ρ0)” value [1, 10] was 0.3611 g/mL, the Flowability [1, 10] was “Very poor (32-37)” and the “Tapped density (ρf)” value [1, 10] was 0.5618 g/mL. For the same compound, the “Average amount of material sticking to the punch” value [2, 10] was 0.21 mg, the Solubility [3] was 220 µg/mL (≈ 578 µM) and the Diameter [4, 10] was 6.00 mm and 6.01 mm. For the same compound, the Thickness [4, 10] was 2.14 mm and 2.18 mm and 2.07 mm and the Average tensile strength [4, 10] was 0.69 MPa.

Work on `CC[C@@H]1CN(C(=O)NCC(F)(F)F)C[C@@H]1c1cnc2cnc3[nH]ccc3n12` [Form CSII, (3S,4R)-3-ethyl-4-(3H-imidazo[1,2-a]pyrrolo [2,3-e]pyrazin-8-yl)-N-(2,2,2-trifluoroethyl) pyrrolidine-1-carboxamide] yielded a solubility at 24 h [5, 11] of 740 µg/mL (≈ 1950 µM), a solubility at 30 h [5, 11] of 760 µg/mL (≈ 2000 µM) and a solubility at 48 h [5, 11] of 830 µg/mL (≈ 2180 µM). For the same compound, the solubility at 24 h [5, 12] was 1400 µg/mL (≈ 3680 µM), the solubility at 30 h [5, 12] was 1400 µg/mL (≈ 3680 µM) and the solubility at 48 h [5, 12] was 1500 µg/mL (≈ 3940 µM). It also gave a solubility at 24 h [5, 13] of 730 µg/mL (≈ 1920 µM), a solubility at 30 h [5, 13] of 740 µg/mL (≈ 1950 µM) and a solubility at 48 h [5, 13] of 720 µg/mL (≈ 1890 µM). For the same compound, the “Solubility compared with Form C” value ([5]; pH=7.4 PBS, FaSSIF and FeSSIF) was “higher”, the “Bulk density (ρ0)” value [1] was 0.3295 g/mL and the Flowability [1] was “Excellent (≤10)”. For the same compound, the “Tapped density (ρf)” value [1] was 0.3548 g/mL, the “Time kept stable (crystalline state unchanged)” value ([6]; 4° C.) was “at least 3 months” and the Purity ([6]; 4° C., closed, 3 months) was 99.41%. For the same compound, the Solid form ([6]; 4° C., closed, 3 months) was “Form CSII”, the Purity [6, 14] was 99.42% and the Solid form [6, 14] was “Form CSII”. For the same compound, the Purity ([6]; 25° C./60% RH, open, 3 months) was 99.43%, the Solid form ([6]; 25° C./60% RH, open, 3 months) was “Form CSII” and the Purity [6, 15] was 99.42%. For the same compound, the Solid form [6, 15] was “Form CSII”, the Purity ([6]; 40° C./75% RH, open, 3 months) was 99.44% and the Solid form ([6]; 40° C./75% RH, open, 3 months) was “Form CSII”. For the same compound, the Purity ([6]; 60° C./75% RH, closed, 1 month) was 99.43%, the Solid form ([6]; 60° C./75% RH, closed, 1 month) was “Form CSII” and the Purity ([6]; 60° C./75% RH, open, 1 month) was 99.48%. For the same compound, the Solid form ([6]; 60° C./75% RH, open, 1 month) was “Form CSII”, the Purity ([6]; Initial) was 99.35% and the Solid form ([6]; Initial) was “Form CSII”. The “Chemical purity during storage” value ([6]; 25° C./60% RH) was “above 99%”, the “Chemical purity during storage” value ([6]; 40° C./75% RH and 60° C./75% RH) was “above 99%” and the “Average amount of material sticking to the punch” value [2] was 0.16 mg. The Crystallinity after tableting ([7]; 10 kN pressure) was “remained basically unchanged”, the “Crystalline state after tableting” value ([7]; 10 kN pressure, Φ8 mm round tooling) was “does not change” and the “Crystalline state after grinding” value ([7]; ground manually for 5 min) was “does not change; also recorded: doesn't change”. For the same compound, the Crystallinity after grinding ([7]; ground manually for 5 min) was “remained basically unchanged”, the “Crystalline form in the formulation process (before and after tableting, XRPD)” value [8] was “stable” and the Particle size distribution [9] was “uniform”. For the same compound, the Diameter [4] was 6.05 mm and 6.04 mm and 6.03 mm, the Thickness [4] was 2.35 mm and 2.16 mm and 2.12 mm and the Average tensile strength [4] was 0.88 MPa.
